Experimental data as given in US20180228801A1, “Method for Enhancing Learning Ability and Memory of Patients with Alzheimer's Disease using Mocetinostat” (National Taiwan Normal University, priority 2017, published 2018).

Assays:
[1] = tested on: mice with oligomeric Aβ25-35 injected into bilateral hippocampal CA1; test: Elevated Plus Maze Test; assay type: in vivo, mice (C57BL/6J); conditions: Aβ25-35 mice, high dose 0.5 mg/kg i.p. once a day
Experimental: (§1) Further, in some embodiments of the present invention, C57BL/6J strain male mice (12 week old) are used as a subject in need. After mice are allowed to adapt to the environment for 6 days, mice are anesthetized with Avertin (0.4 g/kg; purchased from Sigma). The mice are fixed on a stereotactic apparatus for operation, followed by injecting oligomeric Aβ25-35 (10 nM, 3 μL) into bilateral hippocampal CA1 (AP: […] relative to the bregma; ML: ±[…] relative to the midline; DV: […] relative to the skull) on day 7. MGCD0103 and equal volume of vehicle (saline) are intraperitoneal (i.p.) injected once a day from day 8, the day after said operation, for 29 days. On day 24, the Open Field Test is performed; on day 26, the EPM is performed; on day 28, the Y-maze is performed; on days 30 to 36, MWM is performed; and on day 37, mice are euthanized for pathological analysis.
By means of observing the mice exploring an unfamiliar environment, and the contradictory and conflicting behavior caused by fear of the animal of highly hanging arms of the maze, the anxiety level of the animal can be determined. […] The total time spent at the open arms for each mouse was recorded by a video tracking system (EthoVision-XT, Noldus).

acetylated alpha-tubulin = test: Western blot, acetylated alpha-tubulin; assay type: in vivo, mice (C57BL/6J); conditions: chronic i.p. treatment, hippocampus
Experimental: as §1

[2] = tested on: primary hippocampus neurons; test: Primary hippocampus neurons damaged by oligomeric Aβ25-35, immune-fluorescent staining (NeuN, MAP2); assay type: cell-based, mouse (C57BL/6J); conditions: 48 hours after 50 μM oligomeric Aβ25-35, vs group treated with Aβ25-35
Experimental: The method of culturing mouse primary hippocampus neurons follow from a modified method from the prior art (Seibenhener and Wooten, 2012), including: obtaining a 16-18 day old embryo from a C57BL/6J strain pregnant female mouse after euthanasia, obtaining hippocampus tissue of the embryo and digesting the tissue with 0.05% trypsin at 37° C. for 15 minutes, and seeding 3×10^4 cells per well in a 48-well plate coated with Poly-L-lysine (100 μg/mL); wherein the components of the medium includes: Neurobasal Medium® (Gibco™; ThermoFisher Scientific, USA) adding 2% of B-27® Additive (Gibco™; ThermoFisher), 0.5 mM of glutamine (Gibco™; ThermoFisher), 25 μM of glutamate (Sigma-Aldrich, USA), 20 unit/mL of penicillin/streptomycin solution (Gibco™; ThermoFisher Scientific, USA), 1 mM of 4-(2-hydroxyethyl)-1-piperazineethanesulfonic acid) (HEPES) (Sigma-Aldrich), and 1% of heat inactivated Donor Horse Serum (Gibco™; ThermoFisher). Primary hippocampus neurons are cultured in an incubator in an environment of 37° C. and 5% CO2.
In some embodiments, experiments should be performed when said cells are in an Alzheimer's disease state. […] Further, 50 μM of oligomeric Aβ25-35 are applied for 1 hour, and then a high dose (70 nM) and low dose (35 nm) of MGCD0103 is applied for 48 hours on day 9. Finally, the cells are collected for immune-fluorescent staining.
The collected cells are analyzed with immune-fluorescence staining. First, fixing the cells with 4% of paraformaldehyde (PFA) (Sigma-Aldrich) for 30 minutes; rinsing the cells three times with PBST with a time interval of 10 minutes so as to remove remaining PFA; blocking the cells with 10% fetal bovine serum (FBS) for 2 hours; adding NeuN (1:1000; Milipore, USA) and MAP2 (1:1000; Milipore, USA) primary antibodies and allowing reaction at 4° C. for 16 hours; then allowing reaction with secondary antibodies at 37° C. for 2 hours; finally, staining nucleus with […] (DAPI) (Sigma-Aldrich) and analyzing to obtain values such as numbers of neurons, lengths of synapses, and numbers of branches with a High Content Micro-Imaging Acquisition and Screening System and MetaXpress (purchased from Molecular Devices).

[3] = tested on: mice with oligomeric Aβ25-35 injected into bilateral hippocampal CA1; test: Y-Maze Activity Test; assay type: in vivo, mice (C57BL/6J); conditions: Aβ25-35 mice, high dose 0.5 mg/kg i.p. once a day
Experimental: as §1, with “On day 24, the Open Field Test is performed; on day 26, the EPM is performed; on day 28, the Y-maze is performed; on days 30 to 36, MWM is performed; and on day 37, mice are euthanized for pathological analysis.” left out
Y-Maze Activity Test is a test that takes advantage of the characteristic that mice tend to explore an unfamiliar environment, so that the short-term spatial memory of mice can be measured by means of a Y-maze module arranged with three arms (35 cm×5 cm×20 cm) formed of white acrylic. The mice are placed in the middle of the three arms of the Y-Maze, and the mice are allowed to freely and spontaneously explore for 8 minutes, wherein one count is recorded when four limbs of the mice completely enter any one of the three arms. […]

Nc1ccccc1NC(=O)c1ccc(CNc2nccc(-c3cccnc3)n2)cc1 [MGCD0103, N-(2-Aminophenyl)-4-[[(4-pyridin-3-ylpyrimidin-2-yl)amino]methyl] benzamide]
time spent in the open arm [1]: significantly increased | acetylation level of alpha-tubulin (acetylated alpha-tubulin): significantly improve | lengths of neurites ([2]; high dose (70 nM)): significantly improved | numbers of neuron cells (NeuN+) ([2]; high dose (70 nM)): significantly improved | lengths of neurites ([2]; low dose (35 nM)): significantly improved | numbers of neuron cells (NeuN+) ([2]; low dose (35 nM)): significantly improved | spontaneous alternation rate (short-term memory) [3]: significantly increased
